pEC50: −log10 of the molar value. Where two headings read alike, the source gives them in different places.
How the values were obtained:
[1] = molecular target: human 5-hydroxytryptamine receptor 2A (5-HT2A) (Homo sapiens, UniProt P28223); test: Human 5-HT2A functional FLIPR assay (agonist mode); format: cell-based; design: expressed in transfected cells; host or cells: Flp-In-293 (HEK293); settings: for RFU@10 μM: normalized fluorescence reading (Fmax−Fmin) at 10 μM, curve fitting with activation (%)
human 5-hydroxytryptamine receptor 2A (5-HT2A), sequence (P28223 whole entry): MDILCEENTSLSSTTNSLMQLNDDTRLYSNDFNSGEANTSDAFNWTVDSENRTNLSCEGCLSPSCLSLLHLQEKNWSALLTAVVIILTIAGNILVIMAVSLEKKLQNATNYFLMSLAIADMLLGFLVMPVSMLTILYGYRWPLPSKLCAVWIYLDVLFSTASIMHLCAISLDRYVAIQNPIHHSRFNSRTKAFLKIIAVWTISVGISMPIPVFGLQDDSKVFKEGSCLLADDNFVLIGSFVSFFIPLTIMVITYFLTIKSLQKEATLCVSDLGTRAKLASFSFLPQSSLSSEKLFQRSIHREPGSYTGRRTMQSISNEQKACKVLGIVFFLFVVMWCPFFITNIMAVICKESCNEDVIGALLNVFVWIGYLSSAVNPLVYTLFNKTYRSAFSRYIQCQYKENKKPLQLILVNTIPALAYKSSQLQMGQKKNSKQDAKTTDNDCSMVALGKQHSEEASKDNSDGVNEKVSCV
Experimental: The potential excitatory effects of compounds targeting human 5-hydroxytryptamine receptor 2A (5-HT2A) under agonist mode was assessed.
HTR2A&Gα15-HEK293 cells were cultured in DMEM medium containing 10% dialyzed FBS and 1× penicillin-streptomycin, 100 μg/mL Hygromycin B and 300 μg/mL G418. The cells were passaged about three times a week, maintained between ˜30% to ˜90% confluence.
2. For induction, 1 μg/ml tetracycline (final concentration) was added to cell culture medium and incubated for 48 hours prior to seeding cells into plate at 37° C., 5% (v/v) CO2. The cell culture medium was removed from flask. Cells were washed with DP BS.
9. 30 μL/well cell suspensions added into a 384-well cell plate (The cell density was 20,000 cells/well).
10 μL of assay buffer (20 mM HEPES, in 1×HBSS, pH 7.4) was added to each well of the cell plate.
2× dye solution was prepared following the manual of the FLIPR® Calcium 6 Assay Kit: • i. The dye was diluted with assay buffer. • ii. Probenecid was added to the final concentration of 5 mM. • iii. Vortexed vigorously for 1-2 minutes.
4. 10 μL of 2× dye solution was added to each well of the cell plate
(§1) 6. The plate was incubated at 37° C. for 2 hours followed by an additional 15-minute incubation at 25° C.
1. Serotonin HCl was prepared to the concentration of 10 mM with DMSO.
2. The test compounds were prepared to the concentration of 10 mM with DMSO.
4. 3-folds serial dilutions were performed with DMSO.
5. 90 nL/well of serial diluted compounds was transferred from source plate to a 384-well compound plate by using an Echo.
6. 30 μL/well of assay buffer (20 mM HEPES in 1×HBSS, pH 7.4) was added to the compound plate.
2. 10 μL of 3× compounds transferred from the compound plate to the cell plate by FLIPR.
3. The plate was read for 160 sec with 1 sec interval and the data of agonist mode was obtained.
(§2) 1. The normalized fluorescence reading (RFU) was calculated as shown below, wherein Fmax and Fmin stand for maximum and minimum of calcium signal during defined time window:
2. EC50 by fitting RFU against log of compound concentrations with Hill equation was calculated using XLfit.
(§3) 2. 10 μL of assay buffer (20 mM HEPES, in 1×HBSS, pH 7.4) was added to each well of the cell plate.
3. 2× dye solution was prepared following the manual of the FLIPR® Calcium 6 Assay Kit: • i. The dye was diluted with assay buffer. • ii. Probenecid was added to the final concentration of 5 mM. • iii. Vortexed vigorously for 1-2 minutes.
1. The normalized fluorescence reading (RFU) was calculated as shown below, wherein Fmax and Fmin stand for maximum and minimum of calcium signal during defined time window: RFU=Fmax−Fmin

[2] = molecular target: T1, human 5-hydroxytryptamine receptor 1A (5-HT1A) (Homo sapiens, UniProt P08908); test: Human 5-HT1A functional FLIPR assay (agonist mode); format: cell-based; design: expressed in transfected cells; host or cells: Flp-In CHO; settings: for RFU@10 μM: normalized fluorescence reading (Fmax−Fmin) at 10 μM, curve fitting with activation (%)
T1 sequence (P08908 1-422): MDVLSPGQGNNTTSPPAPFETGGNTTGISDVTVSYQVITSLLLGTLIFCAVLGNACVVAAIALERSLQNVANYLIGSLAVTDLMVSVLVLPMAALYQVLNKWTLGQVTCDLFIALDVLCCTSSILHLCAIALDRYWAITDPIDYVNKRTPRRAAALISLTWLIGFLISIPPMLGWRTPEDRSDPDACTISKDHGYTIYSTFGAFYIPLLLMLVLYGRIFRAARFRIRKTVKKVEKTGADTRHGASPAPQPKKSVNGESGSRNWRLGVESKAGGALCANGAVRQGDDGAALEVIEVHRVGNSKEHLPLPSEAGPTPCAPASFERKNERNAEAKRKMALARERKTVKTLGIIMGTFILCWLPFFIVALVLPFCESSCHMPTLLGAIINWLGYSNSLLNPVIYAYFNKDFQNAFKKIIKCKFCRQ
Experimental: The potential excitatory effects of compounds targeting on 5-hydroxytryptamine receptor 1A (5-HT1A) under agonist mode was assessed.
HTR1A&Gα15-CHO cells were cultured in DMEM/F12 medium containing 10% dialyzed FBS, 1× penicillin-streptomycin and 600 μg/mL Hygromycin B. The cells were passaged about three times a week, maintained between ˜30% to ˜90% confluence.
8. Cells were diluted to 4×10^5/mL with cell culture medium.
9. 30 μL/well cell suspensions were added into a 384-well cell plate (The cell density was 12,000 cells/well).
as §3
3. 2× dye solution was prepared following the manufacture's instruction of the FLIPR® Calcium 6 assay kit: • i. The dye was diluted with assay buffer. • ii. probenecid was added to the final concentration of 5 mM. • iii. Vortexed vigorously for 1-2 minutes, adjust pH to 7.4.
4. 10 μL of 2× dye solution was added to each well of the cell plate.
as §1
1. Serotonin was prepared to the concentration of 10 mM with DMSO, 3-folds serial dilutions were performed with DMSO.
2. Prepare the test compound to the concentration of 10 mM with DMSO, preform 3-folds serial dilutions with DMSO.
4. 90 nL/well of serial diluted compounds were transferred from source plate to a 384-well compound plate by using an Echo.
5. 30 μL/well of assay buffer was added to the compound plate.
2. 10 μL of 3× compounds were transferred from the compound plate to the cell plate by FLIPR.
3. The plate was read for 160 sec with 1 sec interval to obtain the data of agonist mode.
as §2
2. EC50 was calculated by fitting RFU against log of compound concentrations with Hill equation using XLfit.

Row | Structure (SMILES) | pEC50 [1] | RFU@10 μM [1] | RFU@10 μM [2] | pEC50 [2] | pEC50 ([1]; FLIPR calcium, agonist mode, HTR2A&Gα15-HEK293 cells, read-out: h5-HT2A, EC50)
1 | [2H]C([2H])(c1c[nH]c2ccc(OCCCCCN3C(=O)C4CCCCC4C3=O)cc12)[C@H]1CCCN1C([2H])([2H])[2H] (mixture of isomers) [Rac (R) I-248] | 7.27 | 8,240 RFU | 601 RFU | – | –
2 | CSc1ccc2[nH]cc(C[C@H]3CCCN3C)c2c1 [(R) I-1, (R)-3-((1-Methylpyrrolidin-2-yl)methyl)-5-(methylthio)-1H-indole] | 7.33 | 5,663 RFU | 3,355 RFU | 6.24 | –
3 | COCCN1CCC[C@@H]1Cc1c[nH]c2ccc(OC)cc12 [(R) I-98, (R)-5-Methoxy-3-((1-(2-methoxyethyl)pyrrolidin-2-yl)methyl)-1H-indole] | 7.89 | 8,298 RFU | 1,666 RFU | 5.50 | –
4 | [2H]C([2H])(c1c[nH]c2ccc(OCCCCN3C(=O)c4ccccc4C3=O)cc12)[C@H]1CCCN1C([2H])([2H])[2H] [(R) I-244, (R)-2-(4-((3-((1-(Methyl-d3)pyrrolidin-2-yl)methyl-d2)-1H-indol-5-yl)oxy)butyl)isoindoline-1,3-dione] | 7.30 | 7,945 RFU | 616 RFU | – | –
5 | [2H]C([2H])(c1c[nH]c2ccc(OCCCCCN3C(=O)c4ccccc4C3=O)cc12)[C@H]1CCCN1C([2H])([2H])[2H] [(R) I-245, (R)-2-(5-((3-((1-(Methyl-d3)pyrrolidin-2-yl)methyl-d2)-1H-indol-5-yl)oxy)pentyl)isoindoline-1,3-dione] | 6.92 | 8,322 RFU | 899 RFU | – | –
6 | CN(C)CCc1c[nH]c2ccccc12 [DMT] | – | 3,493 RFU | 204 RFU | – | 6.79

Source: patent publication US12606543B2, “Indole derivatives as serotonergic agents useful for the treatment of disorders related thereto” (priority 2023, dated 2026)
